Measured values taken from PubChem BioAssay (NCI).
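The compound was tested at five concentrations on cells cultured in 96-well plates, with a 48-hour exposure period. At the GI50, growth is halved. TGI is the concentration that stops growth completely.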

Assays:
Experiment in all cases: NCI tumour cell line growth inhibition, 48 h
BT-549 breast = system: BT-549 breast
MDA-MB-231 breast = system: MDA-MB-231 breast
UACC-257 melanoma = system: UACC-257 melanoma
HCC-2998 colon = system: HCC-2998 colon
OVCAR-5 ovarian = system: OVCAR-5 ovarian
OVCAR-3 ovarian = system: OVCAR-3 ovarian
K-562 leukemia = system: K-562 leukemia
CCRF-CEM leukemia = system: CCRF-CEM leukemia
A549 NSCLC = system: A549 NSCLC
SK-MEL-5 melanoma = system: SK-MEL-5 melanoma
SF-295 CNS = system: SF-295 CNS
OVCAR-8 ovarian = system: OVCAR-8 ovarian
ACHN renal = system: ACHN renal
UACC-62 melanoma = system: UACC-62 melanoma
MDA-MB-435 = system: MDA-MB-435
HT29 colon = system: HT29 colon
DU-145 prostate = system: DU-145 prostate
SK-MEL-28 melanoma = system: SK-MEL-28 melanoma
NCI-H460 lung = system: NCI-H460 lung
MCF7 breast = system: MCF7 breast
SF-268 CNS = system: SF-268 CNS
SF-539 CNS = system: SF-539 CNS
SNB-19 CNS = system: SNB-19 CNS
U251 CNS = system: U251 CNS
MOLT-4 leukemia = system: MOLT-4 leukemia
HOP-92 NSCLC = system: HOP-92 NSCLC
786-0 renal = system: 786-0 renal
PC-3 prostate = system: PC-3 prostate
COLO 205 colon = system: COLO 205 colon
SK-MEL-2 melanoma = system: SK-MEL-2 melanoma
MALME-3M melanoma = system: MALME-3M melanoma
UO-31 renal = system: UO-31 renal
A498 renal = system: A498 renal
SR leukemia = system: SR leukemia
CAKI-1 renal = system: CAKI-1 renal
HCT-15 colon = system: HCT-15 colon
SW-620 colon = system: SW-620 colon
KM12 colon = system: KM12 colon
SK-OV-3 ovarian = system: SK-OV-3 ovarian
RPMI-8226 leukemia = system: RPMI-8226 leukemia
HOP-62 NSCLC = system: HOP-62 NSCLC
LOX IMVI melanoma = system: LOX IMVI melanoma
SN12C renal = system: SN12C renal
HL-60(TB) leukemia = system: HL-60(TB) leukemia
OVCAR-4 ovarian = system: OVCAR-4 ovarian
M14 melanoma = system: M14 melanoma
RXF 393 renal = system: RXF 393 renal
NCI-H522 lung = system: NCI-H522 lung
EKVX NSCLC = system: EKVX NSCLC
HCT-116 colon = system: HCT-116 colon
T-47D breast = system: T-47D breast
TK-10 renal = system: TK-10 renal
SNB-75 CNS = system: SNB-75 CNS
NCI/ADR-RES ovarian = system: NCI/ADR-RES ovarian
HS 578T breast = system: HS 578T breast
NCI-H226 lung = system: NCI-H226 lung

With `Cn1cc(-c2cc(N)n3nc(-c4cn(C)c5ccc(F)cc45)cc3n2)c2cc(F)ccc21` the GI50 (BT-549 breast) was 1760 nM, the TGI (BT-549 breast) was 3.51 µM and the GI50 (MDA-MB-231 breast) was 2000 nM. It also gave a TGI (MDA-MB-231 breast) of 3.79 µM, a GI50 (UACC-257 melanoma) of 1780 nM and a TGI (UACC-257 melanoma) of 3.58 µM. It also gave a GI50 (HCC-2998 colon) of 1740 nM, a TGI (HCC-2998 colon) of 3.24 µM and a GI50 (OVCAR-5 ovarian) of 1930 nM. For the same molecule, the TGI (OVCAR-5 ovarian) was 4.1 µM, the GI50 (OVCAR-3 ovarian) was 1740 nM and the TGI (OVCAR-3 ovarian) was 3.16 µM. It also gave a GI50 (K-562 leukemia) of 2790 nM, a TGI (K-562 leukemia) of 10 µM and a GI50 (CCRF-CEM leukemia) of 2750 nM. For the same molecule, the TGI (CCRF-CEM leukemia) was 7.92 µM, the GI50 (A549 NSCLC) was 1560 nM and the TGI (A549 NSCLC) was 3.01 µM. The GI50 (SK-MEL-5 melanoma) was 1710 nM, the TGI (SK-MEL-5 melanoma) was 3.17 µM and the GI50 (SF-295 CNS) was 1940 nM. The TGI (SF-295 CNS) was 3.73 µM, the GI50 (OVCAR-8 ovarian) was 1820 nM and the TGI (OVCAR-8 ovarian) was 3.53 µM. It also gave a GI50 (ACHN renal) of 1740 nM, a TGI (ACHN renal) of 3.13 µM and a GI50 (UACC-62 melanoma) of 1710 nM. For the same molecule, the TGI (UACC-62 melanoma) was 3.28 µM, the GI50 (MDA-MB-435) was 1730 nM and the TGI (MDA-MB-435) was 3.38 µM. The GI50 (HT29 colon) was 1640 nM, the TGI (HT29 colon) was 3.2 µM and the GI50 (DU-145 prostate) was 1800 nM. For the same molecule, the TGI (DU-145 prostate) was 3.38 µM, the GI50 (SK-MEL-28 melanoma) was 1790 nM and the TGI (SK-MEL-28 melanoma) was 3.23 µM. The GI50 (NCI-H460 lung) was 1900 nM, the TGI (NCI-H460 lung) was 3.75 µM and the GI50 (MCF7 breast) was 1670 nM. For the same molecule, the TGI (MCF7 breast) was 3.19 µM, the GI50 (SF-268 CNS) was 1890 nM and the TGI (SF-268 CNS) was 3.95 µM. It also gave a GI50 (SF-539 CNS) of 1900 nM, a TGI (SF-539 CNS) of 3.45 µM and a GI50 (SNB-19 CNS) of 2010 nM. For the same molecule, the TGI (SNB-19 CNS) was 4.11 µM, the GI50 (U251 CNS) was 1680 nM and the TGI (U251 CNS) was 3.17 µM. The GI50 (MOLT-4 leukemia) was 2310 nM, the TGI (MOLT-4 leukemia) was 7.01 µM and the GI50 (HOP-92 NSCLC) was 1900 nM. The TGI (HOP-92 NSCLC) was 3.5 µM, the GI50 (786-0 renal) was 1500 nM and the TGI (786-0 renal) was 3000 nM. The GI50 (PC-3 prostate) was 1890 nM, the TGI (PC-3 prostate) was 3.84 µM and the GI50 (COLO 205 colon) was 1750 nM. The TGI (COLO 205 colon) was 3.18 µM, the GI50 (SK-MEL-2 melanoma) was 2110 nM and the TGI (SK-MEL-2 melanoma) was 5.97 µM. It also gave a GI50 (MALME-3M melanoma) of 1840 nM, a TGI (MALME-3M melanoma) of 3.57 µM and a GI50 (UO-31 renal) of 1520 nM. The TGI (UO-31 renal) was 2950 nM, the GI50 (A498 renal) was 1940 nM and the TGI (A498 renal) was 6.18 µM. It also gave a GI50 (SR leukemia) of 1970 nM, a TGI (SR leukemia) of 8.4 µM and a GI50 (CAKI-1 renal) of 2040 nM. It also gave a TGI (CAKI-1 renal) of 4.42 µM, a GI50 (HCT-15 colon) of 1850 nM and a TGI (HCT-15 colon) of 3.94 µM. For the same molecule, the GI50 (SW-620 colon) was 1780 nM, the TGI (SW-620 colon) was 3.41 µM and the GI50 (KM12 colon) was 1840 nM. For the same molecule, the TGI (KM12 colon) was 3.56 µM, the GI50 (SK-OV-3 ovarian) was 20.9 µM and the TGI (SK-OV-3 ovarian) was 40.5 µM. For the same molecule, the GI50 (RPMI-8226 leukemia) was 2640 nM, the TGI (RPMI-8226 leukemia) was 8.01 µM and the GI50 (HOP-62 NSCLC) was 1990 nM. It also gave a TGI (HOP-62 NSCLC) of 4.31 µM, a GI50 (LOX IMVI melanoma) of 2570 nM and a TGI (LOX IMVI melanoma) of 4.22 µM. It also gave a GI50 (SN12C renal) of 1900 nM, a TGI (SN12C renal) of 3.66 µM and a GI50 (HL-60(TB) leukemia) of 1830 nM. It also gave a TGI (HL-60(TB) leukemia) of 5.04 µM, a GI50 (OVCAR-4 ovarian) of 1900 nM and a TGI (OVCAR-4 ovarian) of 3.9 µM. The GI50 (M14 melanoma) was 1680 nM, the TGI (M14 melanoma) was 3.35 µM and the GI50 (RXF 393 renal) was 1830 nM. The TGI (RXF 393 renal) was 3.53 µM, the GI50 (NCI-H522 lung) was 1620 nM and the TGI (NCI-H522 lung) was 3.28 µM. It also gave a GI50 (EKVX NSCLC) of 1730 nM, a TGI (EKVX NSCLC) of 3.5 µM and a GI50 (HCT-116 colon) of 1850 nM. For the same molecule, the TGI (HCT-116 colon) was 3.57 µM, the GI50 (T-47D breast) was 1750 nM and the TGI (T-47D breast) was 3.69 µM. It also gave a GI50 (TK-10 renal) of 1620 nM, a TGI (TK-10 renal) of 5.91 µM and a GI50 (SNB-75 CNS) of 2290 nM. The TGI (SNB-75 CNS) was 12.4 µM, the GI50 (NCI/ADR-RES ovarian) was 2060 nM and the TGI (NCI/ADR-RES ovarian) was 4.6 µM. It also gave a GI50 (HS 578T breast) of 2450 nM, a TGI (HS 578T breast) of 5.9 µM and a GI50 (NCI-H226 lung) of 6.5 µM. The TGI (NCI-H226 lung) was 27.8 µM.
